Among the test systems are COLO 205 colon; EKVX NSCLC; 786-0 renal; MDA-N; RXF 393 renal; NCI-H460 lung; A498 renal; NCI/ADR-RES ovarian; SK-OV-3 ovarian; MCF7 breast; MDA-MB-435; NCI-H23 lung; SF-295 CNS; MALME-3M melanoma; LOX IMVI melanoma; CAKI-1 renal; SK-MEL-5 melanoma; HS 578T breast.
What all share (assay): inhibition of tumour cell growth, NCI panel, 48 h

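Five compound concentrations were applied to cells in 96-well plates for 48 hours; endpoints were derived by simple linear interpolation of the resulting dose-response curve. TGI: total growth inhibition.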 Some results are limits rather than exact numbers.

On to `CN1CCCOC(c2ccc([N+](=O)[O-])cc2)O1` (stereo not given), for which the TGI in the test with COLO 205 colon, with EKVX NSCLC, in the test with 786-0 renal, in the test with MDA-N, in the test on RXF 393 renal and with NCI-H460 lung was greater than 100 µM throughout. Also, the TGI with A498 renal, in the test on NCI/ADR-RES ovarian, with SK-OV-3 ovarian, in the test with MCF7 breast, with MDA-MB-435 and with NCI-H23 lung was greater than 100 µM each time. Moreover, the TGI in the test with SF-295 CNS, with MALME-3M melanoma, in the test with LOX IMVI melanoma, in the test on CAKI-1 renal and in the test on SK-MEL-5 melanoma was greater than 100 µM throughout.

For the compound `O=S(Nc1ccccc1)c1ccc(Cl)c(Cl)c1` (stereo not given), the TGI with COLO 205 colon is greater than 100 µM; in the test on EKVX NSCLC it was greater than 100 µM; with 786-0 renal, greater than 100 µM; with MDA-N, greater than 100 µM; in the test with NCI-H460 lung it was greater than 100 µM; in the test with HS 578T breast it was 84.7 µM. For the same compound, the TGI with NCI/ADR-RES ovarian was greater than 100 µM; in the test with MCF7 breast, greater than 100 µM; in the test with MDA-MB-435 it was 92.9 µM; in the test on NCI-H23 lung it was greater than 100 µM; with SF-295 CNS it was 50.1 µM; in the test with MALME-3M melanoma, greater than 100 µM. Also, the figures for the TGI with LOX IMVI melanoma and with SK-MEL-5 melanoma were greater than 100 µM and 62.5 µM, respectively.

`COc1cccc(N2C(=O)/C(=C\c3ccccc3)SC2c2cc(OC)c(OC)c(OC)c2)c1` (stereo not given): the TGI in the test on COLO 205 colon is greater than 100 µM; in the test with EKVX NSCLC, greater than 100 µM; in the test on 786-0 renal, greater than 100 µM; in the test on MDA-N, 40.5 µM; in the test with HS 578T breast it was greater than 100 µM; in the test on A498 renal it was 67.7 µM. The TGI in the test on NCI/ADR-RES ovarian, in the test with SK-OV-3 ovarian, in the test with MCF7 breast, in the test with MDA-MB-435, with NCI-H23 lung and in the test on SF-295 CNS was greater than 100 µM throughout. Besides, the TGI with LOX IMVI melanoma, with CAKI-1 renal and in the test with SK-MEL-5 melanoma was greater than 100 µM in each case.

With `COC(=O)C1(C(=O)OC)Cc2ccc(C)cc2C2=C1C(=O)c1ccccc1C2=O`, the TGI in the test with EKVX NSCLC was 29.4 µM; in the test with 786-0 renal, 68.9 µM; in the test on MDA-N, 32 µM; in the test on NCI-H460 lung, greater than 100 µM; with HS 578T breast it was greater than 100 µM; with NCI/ADR-RES ovarian, 80.1 µM. Moreover, the TGI in the test with MCF7 breast turned out to be 35.7 µM; in the test on MDA-MB-435, 31.4 µM; with NCI-H23 lung it was 46.1 µM; in the test on SF-295 CNS it was 36.1 µM; in the test with MALME-3M melanoma it was 87.5 µM; in the test on LOX IMVI melanoma, 39.9 µM. The TGI with SK-MEL-5 melanoma came out at 28.6 µM.

In the case of `S=C1CSc2c(ccc3ccccc23)N1`, the TGI in the test with COLO 205 colon, in the test with EKVX NSCLC, in the test with 786-0 renal, in the test on MDA-N, in the test on RXF 393 renal and with NCI-H460 lung was greater than 100 µM each time. Further, the TGI with HS 578T breast, with NCI/ADR-RES ovarian, in the test with SK-OV-3 ovarian, in the test with MCF7 breast, with MDA-MB-435 and in the test with NCI-H23 lung was greater than 100 µM each time. Besides, the TGI with SF-295 CNS, in the test with MALME-3M melanoma, with LOX IMVI melanoma, with CAKI-1 renal and in the test on SK-MEL-5 melanoma was greater than 100 µM in each case.

Consider `Cc1ccc(N2CCC3(CC2)OCCO3)cc1`, for which the TGI in the test with COLO 205 colon, in the test with EKVX NSCLC, with 786-0 renal, with MDA-N, in the test with RXF 393 renal and in the test on NCI-H460 lung was greater than 100 µM each time. Besides, the TGI in the test with HS 578T breast, in the test on A498 renal, in the test on NCI/ADR-RES ovarian, in the test on SK-OV-3 ovarian, in the test on MDA-MB-435 and with NCI-H23 lung was greater than 100 µM each time. In addition, the TGI in the test with SF-295 CNS, in the test with MALME-3M melanoma, in the test with CAKI-1 renal and in the test on SK-MEL-5 melanoma was greater than 100 µM each time.

On to `COC(=O)CN1SC2(SC13C(C)(C)C(=O)C3(C)C)C(C)(C)C(=O)C2(C)C`, for which the TGI in the test on COLO 205 colon was greater than 100 µM; with EKVX NSCLC, greater than 100 µM; in the test with 786-0 renal it was greater than 100 µM; in the test on HS 578T breast, greater than 100 µM; with A498 renal, greater than 100 µM; in the test with NCI/ADR-RES ovarian, 87.8 µM. In addition, the TGI with SK-OV-3 ovarian, in the test with MCF7 breast, in the test with MDA-MB-435, with NCI-H23 lung, in the test with SF-295 CNS and in the test with MALME-3M melanoma was greater than 100 µM in each case. Further, the TGI in the test on LOX IMVI melanoma, in the test on CAKI-1 renal and in the test on SK-MEL-5 melanoma was greater than 100 µM throughout.

For `O=c1n(-c2ccccc2)c(=O)n2n1C1Cc3ccccc3C12` (stereo not given), the TGI in the test on COLO 205 colon, with EKVX NSCLC, with 786-0 renal, in the test on MDA-N, in the test on NCI-H460 lung and with HS 578T breast was greater than 100 µM in each case. The TGI with A498 renal, with NCI/ADR-RES ovarian, with SK-OV-3 ovarian, in the test on MCF7 breast, in the test with MDA-MB-435 and in the test on NCI-H23 lung was greater than 100 µM each time. The TGI with SF-295 CNS, with LOX IMVI melanoma, in the test with CAKI-1 renal and in the test with SK-MEL-5 melanoma was greater than 100 µM throughout.

As to `CN1C(=O)C(c2c[nH]c3ccccc23)N(C)C(=O)C1c1c[nH]c2ccccc12` (stereo not given), the TGI in the test on COLO 205 colon, in the test on EKVX NSCLC, in the test on 786-0 renal, in the test on MDA-N, in the test on RXF 393 renal and in the test with NCI-H460 lung was greater than 100 µM throughout. For the same compound, the TGI with HS 578T breast, in the test with NCI/ADR-RES ovarian, in the test on SK-OV-3 ovarian, in the test with MCF7 breast, in the test with MDA-MB-435 and with NCI-H23 lung was greater than 100 µM in each case. Moreover, the TGI in the test on SF-295 CNS, with MALME-3M melanoma, in the test on LOX IMVI melanoma, with CAKI-1 renal and in the test on SK-MEL-5 melanoma was greater than 100 µM each time.
